Reference: patent US20250270180A1, “MEK INHIBITORS AND THERAPEUTIC USES THEREOF” (Immuneering Corporation, priority 2020, published 2025)
Values joined by “and” are separate entries in the source; they are usually repeats but may differ in a detail not shown here. Equal entries are not always repeated.

Assays:
[1] = Metabolite ID study, rabbit hepatocytes; format: in vitro ADME; settings: 10 uM compound 9, T=60 min
Experimental: (§1) Animal Studies: Compound 9 was tested using six species hepatocytes in a metabolite ID study (T=60 min).
(§2) Cryopreserved hepatocytes from a selected species were thawed and incubated in duplicate with 10 uM compound 9 in Krebs-Henseleit buffer. […] Viability of hepatocytes was >70% after thawing.
(§3) (Eppendorf 5804R). […] The disappearance of the parent compound was determined, and the formation of metabolites was evaluated. Metabolites present at >1% of total compound related material (based on peak area) were identified by interpretation of the LC-MS/MS data.
(§4) MS settings were optimized for the flow rate. Full scan spectra were acquired in combination with data dependent MS2.
(§5) The spectra obtained from all samples were screened for the presence of m/z values that are absent in the blank incubations (incubations with hepatocytes without compound and with vehicle control, and incubations of compound in buffer without hepatocytes). T=60 min incubations were used as an initial screening. All possible metabolites observed were semi-quantified by MS response (peak area). MS2 spectra were interpreted to determine possible location of the metabolism reaction. The presence of metabolites identified was compared across the selected species.

[2] = test system: A549 (KRAS G12S) pERK: total ERK; experiment: Phospho-ERK screen in A549 (KRAS G12S); format: cell-based; settings: 10 μM for 2 hours
Experimental: (§6) Materials and Methods: A549 or A375 cells were seeded in 6-well plates at an appropriate seeding density on day 0. On day 2 or 3, after checking the health and confluency of cells, the media was aspirated and replaced with 1 mL media containing a predetermined concentration of compound and incubated for 2 hours. After 2 hours, the media was aspirated, and the cells washed 2 times with cold PBS. Cells were lysed on ice, with 50 uL 1×CST lysis buffer+1 mM PMSF for 5 minutes. After 5 minutes, cells were removed using a scraper and transferred to cold 1.5 mL tubes, and centrifuged for 10 min, 4° C., 14,000×g. Supernatant was gently removed and snap frozen in liquid nitrogen. Protein concentration of the lysate was determined using Bradford Reagent (analyzed using SpectraMax M2E) and diluted to 1 mg/mL or pERK or 1.5 mg/mL for pMEK analysis. Cell lysates were then analyzed for phosphor-ERK/total-ERK levels on a Jess system (ProteinSimple; Cat #JS3346) using the following antibodies: tERK1/2 (CST 4696; 1:50) and pERK1/2 (CST 4377; 1:50). For pMEK/tMEK, the following antibodies were used: tMEK1/2 (CST 4694; 1:15) and pMEK1/2 (CST 9154; 1:400). All dilutions were in Milk-free antibody diluent.
The results of a phospho-ERK Screen in A549 (KRAS G12S) study is described in Table 7, 7A, 7B, and 8 below.

[3] = test system: A549 pMEK:tMEK (CRAF); experiment: CRAF-bypass pMEK:tMEK, A549; format: cell-based
Experimental: as §6, with “For pMEK/tMEK, the following antibodies were used: tMEK1/2 (CST 4694; 1:15) and pMEK1/2 (CST 9154; 1:400). All dilutions were in Milk-free antibody diluent.” left out
A549 or […] cells were treated in duplicate for two hours with compounds at varying concentrations. […] After storage, the lysate was quantified with the Bradford assay. Before the lysates were prepared to run on the Jess, the lysates were diluted to 1 mg/mL for pERK analysis and 1.5 mg/mL pMEK analysis using quantitative Western blotting. […]

[4] = Metabolite ID study, mouse hepatocytes; format: in vitro ADME; settings: 10 uM compound 9, T=60 min
Experimental: as §1, §2, §3, §4, §5

CNS(=O)(=O)Nc1cccc(Cc2c(CN(C)C)c3ccc(OC(=O)N(C)C)cc3oc2=O)c1F [Compound 9]
% of total compound related material based on peak area, Rabbit [1]: 93%
pERK: total ERK (% relative to vehicle) [2]: 0.60% and 1.81%
CRAF A549 pMEK:tMEK [100 nM; 2 hr] [3]: 0.47
% of total compound related material based on peak area, Mouse [4]: 97%
